A word on the IC50: it is the concentration that inhibits the measured activity by half.

SMILES strings stand for the structures.

The values that follow come from patent US10689378B2, “Triazolopyridine compounds and uses thereof” (Novartis AG, priority 2016, dated 2020).

One assay deals with T1, EED (1-441)-His protein (Homo sapiens, UniProt O75530).
T1 construct: 30 nM EED (1-441)-His protein
Kind of assay: EED-H3K27Me3 peptide competition binding assay by AlphaScreen. Conditions: read-out: (a) IC50 EED Alphascreen binding Qualified. In short, it runs like this: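 Serially diluted compound (12 points, 3-fold) incubated 20 min with 30 nM EED(1-441)-His and 15 nM biotin-H3K27Me3(19-33) peptide in 25 mM HEPES pH 8, 0.02% Tween-20, 0.5% BSA. Ni-chelate acceptor/streptavidin donor beads (10 μg/mL each) added, 1 h rt dark; 615 nm emission normalized to controls, dose-response fit for IC50.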
For orientation: Bead proximity is the source of the signal in Alpha formats.

The target of assay [1] is wild type PRC2 (wtPRC2) complex (Homo sapiens, UniProt O75530). Kind of assay: EED LC-MS assay (SAH production by PRC2). Format: biochemical. The conditions noted are these: read-out: (b) IC50 EED LC-MS Qualified. In short, it runs like this: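 Pentameric PRC2 (EZH2, SUZ12, EED, Rbap48, AEBP), 12 nM final, preincubated 20 min with compound and SAM, then 1.5 μM biotinylated H3K27me0 peptide, 1 μM SAM, pH 8.0, 120 min at rt. SAH quantified by LC-MS/MS with d4-SAH; control-normalized activity fitted for IC50.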
wild type PRC2 (wtPRC2) complex, sequence (O75530 whole entry): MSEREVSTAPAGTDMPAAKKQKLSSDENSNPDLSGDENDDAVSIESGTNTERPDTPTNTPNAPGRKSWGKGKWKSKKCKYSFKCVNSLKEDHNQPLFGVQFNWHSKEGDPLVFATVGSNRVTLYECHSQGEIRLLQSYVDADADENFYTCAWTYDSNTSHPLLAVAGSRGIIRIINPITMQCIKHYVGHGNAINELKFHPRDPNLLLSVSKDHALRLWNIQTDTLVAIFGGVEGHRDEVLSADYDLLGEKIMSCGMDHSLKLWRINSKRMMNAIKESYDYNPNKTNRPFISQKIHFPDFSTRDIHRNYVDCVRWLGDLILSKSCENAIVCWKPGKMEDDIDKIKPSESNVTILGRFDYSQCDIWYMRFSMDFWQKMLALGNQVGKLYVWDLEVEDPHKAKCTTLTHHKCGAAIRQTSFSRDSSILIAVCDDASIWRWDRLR
wild type PRC2 (wtPRC2) complex, sequence (Q15910 whole entry partner): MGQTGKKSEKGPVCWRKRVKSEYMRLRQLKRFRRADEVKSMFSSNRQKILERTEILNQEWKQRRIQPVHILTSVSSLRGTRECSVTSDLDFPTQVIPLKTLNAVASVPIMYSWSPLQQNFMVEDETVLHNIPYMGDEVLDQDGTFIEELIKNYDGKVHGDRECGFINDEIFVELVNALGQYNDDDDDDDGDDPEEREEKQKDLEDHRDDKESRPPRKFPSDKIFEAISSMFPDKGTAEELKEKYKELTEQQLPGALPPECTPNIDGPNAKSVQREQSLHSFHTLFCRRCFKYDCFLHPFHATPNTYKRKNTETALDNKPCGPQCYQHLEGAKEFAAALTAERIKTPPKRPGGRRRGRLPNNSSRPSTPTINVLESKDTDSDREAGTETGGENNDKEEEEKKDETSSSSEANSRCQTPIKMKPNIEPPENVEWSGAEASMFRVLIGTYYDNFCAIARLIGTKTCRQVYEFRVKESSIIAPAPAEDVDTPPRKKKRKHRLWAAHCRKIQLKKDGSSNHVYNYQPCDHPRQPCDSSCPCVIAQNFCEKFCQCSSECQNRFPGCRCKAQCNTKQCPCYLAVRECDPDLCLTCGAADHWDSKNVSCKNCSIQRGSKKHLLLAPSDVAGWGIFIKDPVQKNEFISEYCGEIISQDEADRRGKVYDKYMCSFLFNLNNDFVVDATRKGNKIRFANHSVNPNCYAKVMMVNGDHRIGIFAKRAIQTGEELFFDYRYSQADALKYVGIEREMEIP
wild type PRC2 (wtPRC2) complex, sequence (Q15022 whole entry partner): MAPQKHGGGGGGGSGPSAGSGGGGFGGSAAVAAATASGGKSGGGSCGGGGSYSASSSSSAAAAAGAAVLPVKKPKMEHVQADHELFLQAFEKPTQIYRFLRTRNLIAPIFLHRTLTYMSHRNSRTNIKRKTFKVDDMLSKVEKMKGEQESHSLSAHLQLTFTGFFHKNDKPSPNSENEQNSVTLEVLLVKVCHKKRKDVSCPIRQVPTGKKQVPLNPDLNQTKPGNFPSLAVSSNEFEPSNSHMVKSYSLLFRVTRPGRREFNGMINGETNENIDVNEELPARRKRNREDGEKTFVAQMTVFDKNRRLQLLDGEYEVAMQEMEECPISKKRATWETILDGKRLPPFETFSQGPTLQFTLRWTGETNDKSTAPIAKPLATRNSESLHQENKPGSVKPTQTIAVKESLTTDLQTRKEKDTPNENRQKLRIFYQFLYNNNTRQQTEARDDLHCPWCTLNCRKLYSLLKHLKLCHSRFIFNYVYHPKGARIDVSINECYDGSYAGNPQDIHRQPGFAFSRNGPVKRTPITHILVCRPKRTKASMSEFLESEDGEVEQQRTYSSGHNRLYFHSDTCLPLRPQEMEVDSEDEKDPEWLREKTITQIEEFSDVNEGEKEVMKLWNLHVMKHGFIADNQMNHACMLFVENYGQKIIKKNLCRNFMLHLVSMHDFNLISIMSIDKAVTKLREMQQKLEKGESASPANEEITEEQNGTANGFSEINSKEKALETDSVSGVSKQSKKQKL
wild type PRC2 (wtPRC2) complex, sequence (Q09028 whole entry partner): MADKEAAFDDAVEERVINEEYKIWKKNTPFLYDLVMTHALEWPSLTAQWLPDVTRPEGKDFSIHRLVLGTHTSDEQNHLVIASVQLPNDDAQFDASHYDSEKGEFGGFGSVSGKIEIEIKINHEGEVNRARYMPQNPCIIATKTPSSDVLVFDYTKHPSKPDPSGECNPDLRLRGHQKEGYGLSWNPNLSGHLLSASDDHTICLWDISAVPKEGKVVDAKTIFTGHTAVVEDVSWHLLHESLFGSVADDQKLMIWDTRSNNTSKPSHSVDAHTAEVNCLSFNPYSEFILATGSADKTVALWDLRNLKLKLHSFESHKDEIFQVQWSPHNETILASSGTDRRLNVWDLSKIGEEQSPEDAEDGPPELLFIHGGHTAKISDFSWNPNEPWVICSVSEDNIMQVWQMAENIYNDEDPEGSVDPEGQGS
wild type PRC2 (wtPRC2) complex, sequence (Q6ZN18 whole entry partner): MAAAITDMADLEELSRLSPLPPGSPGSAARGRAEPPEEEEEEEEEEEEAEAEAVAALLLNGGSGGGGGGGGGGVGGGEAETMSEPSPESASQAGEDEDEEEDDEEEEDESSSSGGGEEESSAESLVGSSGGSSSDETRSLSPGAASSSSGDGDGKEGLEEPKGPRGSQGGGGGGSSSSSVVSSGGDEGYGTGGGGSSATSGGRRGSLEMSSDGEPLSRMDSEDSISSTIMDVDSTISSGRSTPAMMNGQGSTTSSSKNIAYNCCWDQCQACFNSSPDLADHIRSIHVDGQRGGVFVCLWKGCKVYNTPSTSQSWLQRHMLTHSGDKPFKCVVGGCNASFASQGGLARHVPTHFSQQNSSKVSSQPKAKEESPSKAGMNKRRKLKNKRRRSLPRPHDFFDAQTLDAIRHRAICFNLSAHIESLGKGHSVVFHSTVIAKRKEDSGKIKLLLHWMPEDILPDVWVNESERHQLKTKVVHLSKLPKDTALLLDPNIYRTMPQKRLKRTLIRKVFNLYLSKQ

The subject of assay [2] is H3K27 methylation in G401 cell. As to the kind of experiment: ELISA (H3K27 methylation) assay in G401 cells. Format: cell-based, human. The conditions noted are these: Homo sapiens, G-401, read-out: (c) IC50 ELISA Qualified. In short, it runs like this: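 G401 cells treated 48 h with 3-fold dilutions (8 or 12 points, top 20 μM). Acid-extracted histones probed by ELISA for H3K27me3 or H3K27me2 with ECL readout, normalized to total H3. Percent inhibition versus DMSO fitted to dose-response curve for IC50.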
(In general: ELISA stands for enzyme-linked immunosorbent assay.)

T1 sequence (O75530 whole entry): as the sequence (O75530 whole entry) above

In the case of `COc1cccc(F)c1CNc1ccc(-c2ccc(NC(=O)N(C)C)nc2C)c2nncn12` [Example 368, 3-(5-(5-((2-fluoro-6-methoxybenzyl)amino)-[1,2,4]triazolo[4,3-a]pyridin-8-yl)-6-methylpyridin-2-yl)-1,1-dimethylurea], the IC50 at EED (1-441)-His protein was determined as 11.7 nM; in assay [1], 70.9 nM; in assay [2], 6.5 nM.

Regarding `COc1cccc(F)c1CNc1ccc(-c2ccc(C(C)(C)C#N)nc2C)c2nncn12` [Example 369, 2-(5-(5-((2-fluoro-6-methoxybenzyl)amino)-[1,2,4]triazolo[4,3-a]pyridin-8-yl)-6-methylpyridin-2-yl)-2-methylpropanenitrile], the IC50 was 5.2 nM at EED (1-441)-His protein, 205 nM in assay [1] and 2.9 nM in assay [2].

Regarding `COc1cccc(F)c1CNc1ccc(-c2c(C)cnn2C)c2nncn12` [Example 370, 8-(1,4-dimethyl-1H-pyrazol-5-yl)-N-(2-fluoro-6-methoxybenzyl)-[1,2,4]triazolo[4,3-a] pyridin-5-amine], the IC50 on EED (1-441)-His protein was determined as 25.8 nM; in assay [1], 108 nM; in assay [2], 20 nM.

For the molecule `COc1cccc(F)c1CNc1ccc(-c2cnc(C)nc2OC)c2nncn12` [Example 372, N-(2-fluoro-6-methoxybenzyl)-8-(4-methoxy-2-methylpyrimidin-5-yl)-[1,2,4]triazolo[4,3-a]pyridin-5-amine], the IC50 at EED (1-441)-His protein stood at 21.1 nM; in assay [1] it was 118 nM; in assay [2], 33.8 nM.

For `COc1cc(F)cc(F)c1CNc1ccc(-c2cnc(C)nc2OC)c2nncn12` [Example 373, N-(2,4-difluoro-6-methoxybenzyl)-8-(4-methoxy-2-methylpyrimidin-5-yl)-[1,2,4] triazolo[4,3-a]pyridin-5-amine], the IC50 on EED (1-441)-His protein amounted to 48.7 nM; in assay [1], 494 nM; in assay [2], 64.1 nM.

Consider `COc1ncccc1CNc1ccc(-c2ccc(CN(C)C)cc2)c2nncn12` [Example 374, 8-(4-((dimethylamino)methyl)phenyl)-N-((2-methoxypyridin-3-yl)methyl)-[1,2,4]triazolo[4,3-a] pyridin-5-amine], for which the half-inhibitory concentration (IC50) on EED (1-441)-His protein turned out to be 58.3 nM; in assay [1], 144 nM; in assay [2] it was 46.7 nM.
